Drawing on patent US12516038B2, “Inhibitors of antigen presentation by HLA-DR” (Janssen Pharmaceutica NV, priority 2020, dated 2026), this text covers IC50 for eleven molecules.

In general, IC50 refers to the concentration at which inhibition is half-maximal. A low value points to greater potency in that assay.

For assay [1], the system named is HLA-DR4 restricted mouse T cell hybridoma line (DR4.CII.36.8) with HLA-DRB1*04:01-expressing Boleth cells. As to the kind of experiment: HLA-DR4-restricted peptide-specific T cell-based assay (hybridoma assay). The note with it: Mus musculus, T-cell, 6 h, inhibition of IL-2 production, CII259-273 peptide presented by Boleth cells. Summed up: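 IC50 values derive from 4-parameter logistic fits of IL-2 AlphaLISA signal over 8-point duplicate titrations. Compound and HLA-DRB1*04:01 Boleth APCs were preincubated 1 h, 37° C., before adding CII259-273-restricted DR4.CII.36.8 hybridoma cells with peptide for 6 h at 37° C., in DMEM/1% FCS.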

The next assay concerns the target HLA-DRB1*0401 (Homo sapiens (Human), UniProt P01903+P01911, A100K/A169T/DEL228-266/F76Y/I96L/K127E/L162R/M171V/N62H/P40V/Q125Y/R42H/S133A/S149N/S66Y/V115G/V209L/W38E). As to the kind of experiment: HLA-DR4 HTRF assay. The format is binding. The note with it: inhibition of loading of Alexa Fluor 647-labeled Cit-CII peptide onto HLA-DR4 (CLIP cleaved). The essentials:
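HLA-DRB1*04:01 construct (α/β fused to human Fc, CLIP pre-cleaved by HRV3C overnight at 4° C) at 3 nM was preincubated 45 min with compound and 1 nM anti-Fc-Tb donor, then 40 nM Alexa647-Cit-CII1236-1249 peptide added. After 90 min at 37° C, the 665/620 nm HTRF ratio gave % inhibition; IC50 by nonlinear regression.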
Background: TR-FRET usually uses a lanthanide donor and a delayed reading to cut background.

In assay [2] the test system is human peripheral blood CD4+ helper T cells. As to the kind of experiment: Pan-CD4+ T cell activation (off-target assay). It counts as cell-based. The conditions noted are these: Homo sapiens, T-cell, 24 h, anti-CD3/anti-CD28 stimulation, IL-2 production by ELISA. The source says: The counter-screening was made through an HLA-DR-independent assay (Pan-CD4+ T cell activation assay), i.e., TCR-stimulated pan-T cell activation assay, and consists of activating T cell directly with agonistic antibody targeting the T cell receptor. The lack of inhibition in the counter-screening assay reflects that the inhibition of T cell activation in the HLA-DR4 restricted peptide-specific T cell based assay with the small molecule inhibitors is due to impaired antigen presentation on HLA-DR to the T cell and not due to a direct inhibition of the T cell function by an off-target mechanism (i.e., independently of targeting HLA-DR).
Pan-CD4+ T Cell Activation
Compounds were tested using a pan-T cell activation assay. In this assay, anti-human CD3 antibody (BD Pharmingen #55336) pre-coated at 1 μg/mL to a 96-well assay plate and 1 μg/ml soluble anti-human CD28 (EBioscience #16-0289-85) antibody were used for activating human peripheral blood CD4+ helper T cells (no HLA-DR-expressing APC were present in this assay format), in the presence of compounds (or vehicle control) for 24 hrs. IL-2 production was measured in the culture supernatant by ELISA (Human IL-2 Duo Set ELISA #DY202 from R&D Systems).
(In general: An ELISA detects its analyte on a solid surface through an enzyme-linked reagent.)

With `NC(=O)c1cccc([C@H](Oc2ccc3c(c2)OCCC3=O)c2ccncc2)c1` (single isomer, unassigned) [Example 9b, (*S)-3-(((4-oxochroman-7-yl)oxy)(pyridin-4-yl)methyl)benzamide], the IC50 was 11 µM in assay [1], 0.98 µM at HLA-DRB1*0401 and 4.7 µM in assay [2].

For the molecule `N#Cc1ccc([C@@H](Oc2ccc3c(c2)OCCC3=O)c2ccncc2)cc1` (single isomer, unassigned) [Example 10a, (*R)-4-(((4-oxochroman-7-yl)oxy)(pyridin-4-yl)methyl)benzonitrile], the IC50 was 4.9 µM in assay [1], 0.95 µM on HLA-DRB1*0401 and greater than 15 µM in assay [2].

In the case of `NC(=O)c1ccc([C@@H](Oc2ccc3c(c2)OCCC3=O)c2ccncc2)cc1` (single isomer, unassigned) [Example 11a, (*R)-4-(((4-oxochroman-7-yl)oxy)(pyridin-4-yl)methyl)benzamide], the figures for the IC50 (in assay [1]; on HLA-DRB1*0401; in assay [2]) were 0.46 µM, 0.72 µM and greater than 15 µM, respectively.

As for `NC(=O)c1ccc([C@H](Oc2ccc3c(c2)OCCC3=O)c2ccncc2)cc1` (single isomer, unassigned) [Example 11b, (*S)-4-(((4-oxochroman-7-yl)oxy)(pyridin-4-yl)methyl)benzamide], the IC50 was 4.7 µM in assay [1], 0.95 µM against HLA-DRB1*0401 and greater than 15 µM in assay [2].

For the molecule `COc1ccc([C@@H](Oc2ccc3c(c2)OCCC3=O)c2ccncc2)cc1` (single isomer, unassigned) [Example 12a, (*R)-7-((4-Methoxyphenyl)(pyridin-4-yl)methoxy)chroman-4-one], the IC50 in assay [1] was found to be 2.6 µM; at HLA-DRB1*0401, 2 µM; in assay [2], 9.9 µM.

Regarding `COc1ccc([C@H](Oc2ccc3c(c2)OCCC3=O)c2ccncc2)cc1` (single isomer, unassigned) [Example 12b, (*S)-7-((4-Methoxyphenyl)(pyridin-4-yl)methoxy)chroman-4-one], the IC50 in assay [1] was 2.9 µM; at HLA-DRB1*0401, 1.7 µM; in assay [2], greater than 15 µM.

For `COc1cccc([C@@H](Oc2ccc3c(c2)OCCC3=O)c2ccncc2)c1` (single isomer, unassigned) [Example 13b, (*S)-7-((3-methoxyphenyl)(pyridin-4-yl)methoxy)chroman-4-one], the IC50 is 4.7 µM in assay [1], 1.4 µM against HLA-DRB1*0401 and greater than 15 µM in assay [2].

For `COc1ccccc1[C@H](Oc1ccc2c(c1)OCCC2=O)c1ccncc1` (single isomer, unassigned) [Example 14a, (*R)-7-((2-Methoxyphenyl)(pyridin-4-yl)methoxy)chroman-4-one], the IC50 in assay [1] was 8.7 µM; on HLA-DRB1*0401, 1.9 µM; in assay [2] it was greater than 15 µM.

Take `Cc1cc([C@H](Oc2ccc3c(c2)OCCC3=O)c2ccc(C(N)=O)cc2)ccn1` (single isomer, unassigned) [Example 15a, (*R)-4-((2-Methylpyridin-4-yl)((4-oxochroman-7-yl)oxy)methyl)benzamide]: the IC50 in assay [1] is 0.61 µM; on HLA-DRB1*0401 it was 0.44 µM; in assay [2], greater than 15 µM.

For the molecule `COc1ccc(COc2ccc([C@@H](Oc3ccc4c(c3)OCCC4=O)c3ccncc3)cc2)cc1` (single isomer, unassigned) [Example 17a, (*R)-7-((4-((4-Methoxybenzyl)oxy)phenyl)(pyridin-4-yl)methoxy)chroman-4-one], the IC50 in assay [1] is 4.3 µM; against HLA-DRB1*0401, 5.8 µM; in assay [2], 15 µM.

As to `COc1ccc(COc2ccc([C@H](Oc3ccc4c(c3)OCCC4=O)c3ccncc3)cc2)cc1` (single isomer, unassigned) [Example 17b, (*S)-7-((4-((4-Methoxybenzyl)oxy)phenyl)(pyridin-4-yl)methoxy)chroman-4-one], the IC50 came out at 7.7 µM in assay [1], 4.9 µM on HLA-DRB1*0401 and 4.8 µM in assay [2].
